pKi: −log10 of the molar value.
How the values were obtained:
[1] = biological target: T1, human norepinephrine transporter (Homo sapiens, UniProt P23975); test: hNET receptor binding ([125I]-RTI-55 radioligand binding); details: membranes of HEK-293 cells transfected with human norepinephrine transporter, IC50 converted to Ki by Cheng-Prusoff, read-out: hNET (Ki)
T1 construct: host or cells: HEK-293
Procedure, shortened: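 Membranes from HEK-293 cells transfected with human NET. Nonspecific binding defined with 10 μM desipramine, duplicates. IC50 by nonlinear regression, converted to Ki with Cheng-Prusoff.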

[2] = biological target: T2, human seritonin transporter (Homo sapiens, UniProt P31645); test: hSERT receptor binding ([125I]-RTI-55 radioligand binding); details: membranes of HEK-293 cells transfected with human seritonin transporter, IC50 converted to Ki by Cheng-Prusoff, read-out: SERT (Ki)
T2 construct: host or cells: HEK-293
T2 sequence (P31645 whole entry): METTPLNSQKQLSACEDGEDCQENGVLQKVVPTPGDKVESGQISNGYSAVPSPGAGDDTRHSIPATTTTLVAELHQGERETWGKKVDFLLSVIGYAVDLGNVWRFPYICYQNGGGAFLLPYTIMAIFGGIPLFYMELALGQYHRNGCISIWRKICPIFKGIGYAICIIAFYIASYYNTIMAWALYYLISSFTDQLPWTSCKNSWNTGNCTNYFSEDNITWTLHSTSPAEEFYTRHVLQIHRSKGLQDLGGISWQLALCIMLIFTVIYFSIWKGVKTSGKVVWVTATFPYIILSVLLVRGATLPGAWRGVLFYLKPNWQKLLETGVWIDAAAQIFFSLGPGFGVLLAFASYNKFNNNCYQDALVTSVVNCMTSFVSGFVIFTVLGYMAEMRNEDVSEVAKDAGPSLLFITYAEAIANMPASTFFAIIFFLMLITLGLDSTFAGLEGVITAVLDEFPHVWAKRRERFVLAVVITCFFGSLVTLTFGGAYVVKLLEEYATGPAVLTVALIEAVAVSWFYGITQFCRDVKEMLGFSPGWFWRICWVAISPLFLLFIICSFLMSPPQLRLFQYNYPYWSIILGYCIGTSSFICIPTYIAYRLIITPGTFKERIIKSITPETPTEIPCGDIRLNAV

T1 sequence (P23975 whole entry): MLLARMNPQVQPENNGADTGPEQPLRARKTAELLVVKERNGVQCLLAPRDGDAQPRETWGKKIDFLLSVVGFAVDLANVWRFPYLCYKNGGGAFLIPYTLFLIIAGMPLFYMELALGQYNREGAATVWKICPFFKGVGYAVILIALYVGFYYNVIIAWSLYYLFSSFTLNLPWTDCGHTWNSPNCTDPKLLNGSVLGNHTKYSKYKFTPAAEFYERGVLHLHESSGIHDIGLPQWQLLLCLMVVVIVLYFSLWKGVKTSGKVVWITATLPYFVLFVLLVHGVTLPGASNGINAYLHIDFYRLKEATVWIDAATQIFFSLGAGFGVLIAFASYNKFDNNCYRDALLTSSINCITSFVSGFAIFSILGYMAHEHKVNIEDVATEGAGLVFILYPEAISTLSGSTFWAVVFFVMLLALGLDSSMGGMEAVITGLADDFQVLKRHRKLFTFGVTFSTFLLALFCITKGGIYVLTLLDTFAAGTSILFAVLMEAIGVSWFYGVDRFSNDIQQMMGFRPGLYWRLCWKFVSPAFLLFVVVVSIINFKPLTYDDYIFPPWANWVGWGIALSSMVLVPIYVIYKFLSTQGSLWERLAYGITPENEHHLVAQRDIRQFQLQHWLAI

SMILES | pKi [1] | pKi [2] | melting point
Oc1ccccc1O[C@@H](c1ccccc1)[C@@H]1CNCCO1 [Example 50, (2S,3S)-2-(Morpholin-2-yl-phenyl-methoxy)-phenol] | 8.28 | 5.20 | 156 to 158 °C
CCCC(Oc1ccccc1OCC)[C@@H]1CNCCO1 (mixture of isomers) [Example 104, (2S)-2-[(1S)-1-(2-ethoxyphenoxy)butyl]morpholine] | 5.62 | 5.01 | –
FCCOc1ccccc1O[C@@H](c1ccccc1)[C@@H]1CNCCO1 [Example 58, (S)-2-{(S)-[2-(2-Fluoro-ethoxy)-phenoxy]-phenyl-methyl}-morpholine] | 8.13 | 6.02 | –
Fc1ccc(Oc2ncccc2O[C@@H](c2ccccc2)[C@@H]2CNCCO2)cc1 [Example 116, (2S)-2-[(S)-{[2-(4-fluorophenoxy)pyridin-3-yl]oxy}(phenyl)methyl]morpholine] | 7.20 | 5.88 | –
CCOc1ccccc1O[C@@H](c1ncccc1C)[C@@H]1CNCCO1 [Example 138, (2S)-2-[(S)-(2-ethoxyphenoxy)(3-methylpyridin-2-yl)methyl]morpholine] | 5.79 | 5.42 | –
Brc1ncccc1O[C@@H](c1ccccc1)[C@@H]1CNCCO1 [Example 41, (S)-2-[(S)-(2-Bromo-pyridin-3-yloxy)-phenyl-methyl]-morpholine] | 7.77 | 7.77 | –

Results, then the compound that gave them:

pKi [1] | pKi [2] | melting point | SMILES
7.49 | ≤ 5.00 | – | CC(C)Oc1ccccc1O[C@@H](c1ccccn1)[C@@H]1CNCCO1 [Example 126, (2S)-2-[(S)-(2-isopropoxyphenoxy)(pyridin-2-yl)methyl]morpholine]
6.05 | 5.48 | – | Fc1cccc(F)c1OC(c1cc2ccccc2o1)[C@@H]1CNCCO1 (mixture of isomers) [Example 143, (2S)-2-[1-benzofuran-2-yl(2,6-difluorophenoxy)methyl]morpholine]
8.52 | 5.47 | – | COc1cccc(F)c1OC(c1ccccc1)[C@@H]1CNCCO1 (stereo partly drawn) [Example 95, (2S)-2-[(2-fluoro-6-methoxyphenoxy)(phenyl)methyl]morpholine]
6.65 | 5.31 | – | CCOc1ccccc1O[C@H](c1ccccn1)[C@H]1CNCCO1 [Example 181, (2R)-2-[(R)-(2-ethoxyphenoxy)(pyridin-2-yl)methyl]morpholine]
8.10 | 5.53 | – | COc1cccc([C@H](Oc2c(F)cccc2F)[C@@H]2CNCCO2)n1 [Example 199, (2S)-2-[(S)-(2,6-difluorophenoxy)(6-methoxypyridin-2-yl)methyl]morpholine]
8.43 | 6.33 | – | Fc1cccc(F)c1O[C@@H](c1ccccc1)[C@@H]1CNCCO1 [Example 36, (S)-2-[(S)-(2,6-Difluoro-phenoxy)-phenyl-methyl]-morpholine]
8.10 | 5.59 | – | COc1ccc(F)cc1OC(c1ccccc1)[C@@H]1CNCCO1 (stereo partly drawn) [Example 167, (2S)-2-[(5-fluoro-2-methoxyphenoxy)(phenyl)methyl]morpholine]
7.96 | 5.31 | – | CCOc1c(F)cccc1OC(c1ccccc1)[C@@H]1CNCCO1 (stereo partly drawn) [Example 170, (2S)-2-[(2-ethoxy-3-fluorophenoxy)(phenyl)methyl]morpholine]

Source: US7659394B2 (Pfizer Inc, priority 2004, dated 2010)
